Consider 28 molecules from PubChem BioAssay AID588772 (The Scripps Research Institute Molecular Screening Center, 2011).

Active and inactive are the calls of the source. How the calls were made is not given here.

In this assay the test system is 3C-like protease (3CLpro), SARS coronavirus. Kind of assay: SARS 3CLpro protease inhibitors, late-stage follow-up, biochemical, fluorescence, single concentration, set 4 (AID 588772). As to conditions: recombinant 3CLpro, fluorogenic substrate cleavage; at 100 µM; stronger effect = higher value.
One may read the inhibition as the change of the read-out against control, counted positive when it falls. Turning to `CC(C)(C)NC(=O)C(c1cnccn1)N(C(=O)c1ccco1)c1ccc(C(C)(C)C)cc1` (stereo not drawn), the inhibition is 96.2%. The same measure for `CC(C)(C)NC(=O)C(c1cccnc1)N(C(=O)c1cc2ccccc2o1)c1ccc(C(C)(C)C)cc1` (stereo not drawn): 14.3% (inactive). The value for `CC(C)(C)NC(=O)C(c1cccnc1)N(C(=O)c1ccco1)c1ccc(-c2ccncc2)cc1` (stereo not drawn) was 27.8% (inactive).

Take `CC(C)(C)NC(=O)C(c1ccccn1)N(C(=O)c1ccco1)c1ccc(C(C)(C)C)cc1` (stereo not drawn): the inhibition is 0.7% (inactive). The same measure for `CC(C)(C)NC(=O)C(c1cn[nH]c1)N(C(=O)c1ccco1)c1ccc(C(C)(C)C)cc1` (stereo not drawn): 16.1% (inactive); for `CC(C)(C)NC(=O)C(c1cccnc1)N(C(=O)c1ccco1)c1ccc(Cc2ccccc2)cc1` (stereo not drawn): 77.6%.

For `CC(C)(C)NC(=O)[C@@H](c1cccnc1)N(C(=O)c1cnc[nH]1)c1ccc(C(C)(C)C)cc1`, the inhibition is 47.1% (inactive). Turning to `CC(C)(C)NC(=O)C(c1cn[nH]n1)N(C(=O)c1ccco1)c1ccc(C(C)(C)C)cc1` (stereo not drawn), the inhibition was 22.7% (inactive). The same measure for `CC(C)(C)c1ccc(N(Cc2cccnc2)C(=O)c2cnc[nH]2)cc1`: 46.8% (inactive); for `COc1cccc(Oc2ccc(N(C(=O)c3ccco3)C(C(=O)NC(C)(C)C)c3cccnc3)cc2)c1` (stereo not drawn): 52%; for `CC(C)(C)NC(=O)[C@H](c1cccnc1)N(C(=O)c1cnc[nH]1)c1ccc(C(C)(C)C)cc1`: 97.6%.

Turning to `CC(C)(C)NC(=O)C(c1ccnnc1)N(C(=O)c1ccco1)c1ccc(C(C)(C)C)cc1` (stereo not drawn), the inhibition was 94.3%.

Regarding `CC(C)(C)NC(=O)C(c1cccnc1)N(C(=O)c1ccco1)c1ccc(OCc2ccccc2)cc1` (stereo not drawn), the inhibition is 53.2%. The value for `CC(C)(C)NC(=O)C(c1cccnc1)N(C(=O)c1ccco1)c1ccc(-c2cccnc2)cc1` (stereo not drawn) was 64.1%; that for `Cn1cnc(C(=O)N(c2ccc(C(C)(C)C)cc2)C(C(=O)NC(C)(C)C)c2cccnc2)c1` (stereo not drawn) was 51.3%.

Consider `CC(C)(C)NC(=O)C(c1cccnc1)N(C(=O)c1ccc(C(F)(F)F)o1)c1ccc(C(C)(C)C)cc1` (stereo not drawn), for which the inhibition is 17.8% (inactive). The same measure for `CC(C)(C)NC(=O)C(c1cccnc1)N(C(=O)c1ccco1)c1ccc(-c2ccnc(F)c2)cc1` (stereo not drawn): 40.3% (inactive); for `CC(C)(C)NC(=O)C(c1cccnc1)N(C(=O)c1ccco1)c1ccc(Oc2ccccc2)cc1` (stereo not drawn): 40.9% (inactive).

Consider `CC(C)(C)NC(=O)C(c1cccnc1)N(C(=O)c1ccco1)c1ccc(-c2cncnc2)cc1` (stereo not drawn), for which the inhibition was 48.6% (inactive). The value for `CC(C)(C)NC(=O)C(c1ccn[nH]1)N(C(=O)c1ccco1)c1ccc(C(C)(C)C)cc1` (stereo not drawn) was 6.3% (inactive). The same measure for `CC(C)(C)NC(=O)C(c1cccnc1)N(C(=O)c1ccco1)c1ccc(I)cc1` (stereo not drawn): 66.3%. The same measure for `Cc1ccc(C(C(=O)NC(C)(C)C)N(C(=O)c2ccco2)c2ccc(C(C)(C)C)cc2)cn1` (stereo not drawn): -4.1% (inactive); for `CC(C)(C)NC(=O)C(c1ccncc1)N(C(=O)c1ccco1)c1ccc(C(C)(C)C)cc1` (stereo not drawn): 60.2%. As to `CC(C)(C)NC(=O)C(c1cccnc1)N(C(=O)c1ccco1)c1ccc(-c2cccn2C(=O)OC(C)(C)C)cc1` (stereo not drawn), the inhibition is 56.9%.

Consider `CC(C)(C)NC(=O)C(c1cnc[nH]1)N(C(=O)c1ccco1)c1ccc(C(C)(C)C)cc1` (stereo not drawn), for which the inhibition was 22.8% (inactive). The value for `CC(C)(C)NC(=O)C(c1cccnc1)N(C(=O)c1ccco1)c1ccc(-c2ccccc2)cc1` (stereo not drawn) was 94.8%; that for `Cc1noc(C)c1-c1ccc(N(C(=O)c2ccco2)C(C(=O)NC(C)(C)C)c2cccnc2)cc1` (stereo not drawn) was 85.1%; that for `CC(C)(C)NC(=O)C(c1cccnc1)N(C(=O)c1ccco1)c1ccc(-c2cccc(F)c2F)cc1` (stereo not drawn) was 90.2%.
